Measured values from ChEMBL document CHEMBL5385860, “Antiproliferative, antiangiogenic and apoptotic effect of new hybrids of quinazoline-4(3H)-ones and sulfachloropyridazine” (Eur J Med Chem, 2023).

Legend:
[1] = Cytotoxicity against human RPTEC cells assessed as inhibition of cell growth incubated for 24 hrs by MTT assay; format: toxicity, cell-based
UO-31 [2] = test: Induction of cell cycle arrest in human UO-31 cells assessed as accumulation of cells in G0-G1 phase at 3.61 uM measured after 24 hrs by PI staining based flow cytometry analysis (reference value: 49.26%); format: functional
UO-31 [3] = test: Induction of cell cycle arrest in human UO-31 cells assessed as accumulation of cells in S phase at 3.61 uM measured after 24 hrs by PI staining based flow cytometry analysis (reference value: 36.42%); format: functional
UO-31 [4] = test: Induction of cell cycle arrest in human UO-31 cells assessed as accumulation of cells in G2/M phase at 3.61 uM measured after 24 hrs by PI staining based flow cytometry analysis (reference value: 14.32%); format: functional
UO-31 [5] = format: functional, Homo sapiens; conditions: dose 3.61 µM; time 24 hrs
UO-31 [6] = test: Induction of cell cycle arrest in human UO-31 cells assessed as cell aggregates at 3.61 uM measured after 24 hrs by PI staining based flow cytometry analysis (reference value: 1.82%); format: functional
UO-31 [7] = test: Induction of cell cycle arrest in human UO-31 cells assessed as cell debris at 3.61 uM measured after 24 hrs by PI staining based flow cytometry analysis (reference value: 2.19%); format: functional
UO-31 [8] = test: Induction of apoptosis in human UO-31 cells assessed as early apoptotic cells at IC50 by Annexin V-FITC/PI staining based flow cytometry analysis (reference value: 0.61%); format: functional
UO-31 [9] = test: Induction of apoptosis in human UO-31 cells assessed as late apoptotic cells at IC50 by Annexin V-FITC/PI staining based flow cytometry analysis (reference value: […]); format: functional
UO-31 [10] = test: Induction of apoptosis in human UO-31 cells assessed as necrotic cells at IC50 by Annexin V-FITC/PI staining based flow cytometry analysis (reference value: 1.19%); format: functional
UO-31 [11] = test: Induction of apoptosis in human UO-31 cells assessed as increase in caspase-3 level by measuring optical density by Western blot densitometry analysis (reference value: 0.095); format: functional
UO-31 [12] = test: Induction of apoptosis in human UO-31 cells assessed as Bax protein level by ELISA (reference value: 70.11 +/- 7.45 pg/ml); format: functional
UO-31 [13] = test: Induction of apoptosis in human UO-31 cells assessed as Bcl-2 protein level by ELISA (reference value: 12.19 +/- 0.64 ng/ml); format: functional
UO-31 [14] = test: Induction of apoptosis in human UO-31 cells assessed as fold increase in Bax protein level by ELISA relative to control; format: functional
UO-31 [15] = test: Induction of apoptosis in human UO-31 cells assessed as fold decrease in Bcl-2 protein level by ELISA relative to control; format: functional
UO-31 [16] = test: cells; conditions: Homo sapiens, UO-31, 24 h
M14 [17] = test: cells; conditions: Homo sapiens, M14, 24 h
HCT-116 = test: cells; conditions: Homo sapiens, HCT-116, 24 h
SNB-75 [18] = test: cells; conditions: Homo sapiens, SNB-75, 24 h
UO-31 [19] = test: cells; conditions: Homo sapiens, UO-31, light or radiation study
M14 [20] = test: cells; conditions: Homo sapiens, M14, light or radiation study
MDA-MB-468 = test: Cytotoxicity against human MDA-MB-468 cells assessed as growth inhibition at 10 uM relative to control; format: functional; conditions: read-out: GI
RXF 393 = test: Cytotoxicity against human RXF 393 cells assessed as growth inhibition at 10 uM relative to control; format: functional; conditions: read-out: GI
T47D = test: Cytotoxicity against human T47D cells assessed as growth inhibition at 10 uM relative to control; format: functional; conditions: read-out: GI
UACC-62 = test: Cytotoxicity against human UACC-62 cells assessed as growth inhibition at 10 uM relative to control; format: functional; conditions: read-out: GI
SR = test: Cytotoxicity against human SR cells assessed as growth inhibition at 10 uM relative to control; format: functional; conditions: read-out: GI
A549 = test: Cytotoxicity against human A549 cells assessed as growth inhibition at 10 uM relative to control; format: functional; conditions: read-out: GI
RPMI-8226 = test: Cytotoxicity against human RPMI-8226 cells assessed as growth inhibition at 10 uM relative to control; format: functional; conditions: read-out: GI
MOLT-4 = test: Cytotoxicity against human MOLT-4 cells assessed as growth inhibition at 10 uM relative to control; format: functional; conditions: read-out: GI
MCF7 = test: Cytotoxicity against human MCF7 cells assessed as growth inhibition at 10 uM relative to control; format: functional; conditions: read-out: GI
UO-31 [21] = test: Cytotoxicity against human UO-31 cells assessed as growth inhibition at 10 uM relative to control; format: functional; conditions: read-out: GI
CAKI-1 = test: Cytotoxicity against human CAKI-1 cells assessed as growth inhibition at 10 uM relative to control; format: functional; conditions: read-out: GI
A498 = test: Cytotoxicity against human A498 cells assessed as growth inhibition at 10 uM relative to control; format: functional; conditions: read-out: GI
786-0 = test: Cytotoxicity against human 786-0 cells assessed as growth inhibition at 10 uM relative to control; format: functional; conditions: read-out: GI
SNB-75 [22] = test: Cytotoxicity against human SNB-75 cells assessed as growth inhibition at 10 uM relative to control; format: functional; conditions: read-out: GI
NCI-H522 = test: Cytotoxicity against human NCI-H522 cells assessed as growth inhibition at 10 uM relative to control; format: functional; conditions: read-out: GI
MDA-MB-231 = test: Cytotoxicity against human MDA-MB-231 cells assessed as growth inhibition at 10 uM relative to control; format: functional; conditions: read-out: GI
Hs-578T = test: Cytotoxicity against human Hs-578T cells assessed as growth inhibition at 10 uM relative to control; format: functional; conditions: read-out: GI
SK-OV-3 = test: Cytotoxicity against human SK-OV-3 cells assessed as growth inhibition at 10 uM relative to control; format: functional; conditions: read-out: GI
IGROV-1 = test: Cytotoxicity against human IGROV-1 cells assessed as growth inhibition at 10 uM relative to control; format: functional; conditions: read-out: GI
SF-268 = test: Cytotoxicity against human SF-268 cells assessed as growth inhibition at 10 uM relative to control; format: functional; conditions: read-out: GI
KM12 = test: Cytotoxicity against human KM12 cells assessed as growth inhibition at 10 uM relative to control; format: functional; conditions: read-out: GI
HT-29 = test: Cytotoxicity against human HT-29 cells assessed as growth inhibition at 10 uM relative to control; format: functional; conditions: read-out: GI
EKVX = test: Cytotoxicity against human EKVX cells assessed as growth inhibition at 10 uM relative to control; format: functional; conditions: read-out: GI
K562 = test: Cytotoxicity against human K562 cells assessed as growth inhibition at 10 uM relative to control; format: functional; conditions: read-out: GI
CCRF-CEM = test: Cytotoxicity against human CCRF-CEM cells assessed as growth inhibition at 10 uM relative to control; format: functional; conditions: read-out: GI
BT-549 = test: Cytotoxicity against human BT-549 cells assessed as growth inhibition at 10 uM relative to control; format: functional; conditions: read-out: GI
LOX IMVI = test: Cytotoxicity against human LOX IMVI cells assessed as growth inhibition at 10 uM relative to control; format: functional; conditions: read-out: GI
HOP-92 = test: Cytotoxicity against human HOP-92 cells assessed as growth inhibition at 10 uM relative to control; format: functional; conditions: read-out: GI
[23] = biological target: Vascular endothelial growth factor A, long form (Homo sapiens) (UniProt P15692); test: Inhibition of VEGF-mediated cell migration in HUVEC cells assessed as wound closure at 10 ug/ml measured after 72 hrs by scratch-wound healing assay; format: cell-based; design: scale not given: the % may be the effect or the level left; conditions: dose 10.0 µg/ml
[24] = Inhibition of PDGFR (unknown origin) incubated for 60 mins in presence of ATP by ADP-Glo kinase assay; design: species or system Homo sapiens
UO-31 [25] = test: Induction of cell cycle arrest in human UO-31 cells assessed as cell aggregates at 1.67 uM measured after 24 hrs by PI staining based flow cytometry analysis (reference value: 1.82%); format: functional

Sequence of Vascular endothelial growth factor A, long form (Homo sapiens) (P15692 whole entry): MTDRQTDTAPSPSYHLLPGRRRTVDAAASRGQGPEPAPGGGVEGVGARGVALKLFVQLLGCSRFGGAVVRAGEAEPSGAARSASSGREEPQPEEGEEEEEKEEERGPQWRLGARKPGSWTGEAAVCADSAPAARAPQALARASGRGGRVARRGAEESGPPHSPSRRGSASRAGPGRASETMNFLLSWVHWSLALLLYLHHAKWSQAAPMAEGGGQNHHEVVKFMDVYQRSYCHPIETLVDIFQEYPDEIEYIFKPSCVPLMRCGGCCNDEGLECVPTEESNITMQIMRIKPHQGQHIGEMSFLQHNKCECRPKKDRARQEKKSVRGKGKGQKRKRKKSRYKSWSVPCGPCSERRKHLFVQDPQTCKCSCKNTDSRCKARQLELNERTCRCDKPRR

In the case of `COc1cccc2c1C(=O)c1c(O)c3c(c(O)c1C2=O)C[C@@](O)(C(=O)CO)C[C@@H]3O[C@H]1C[C@H](N)[C@H](O)[C@H](C)O1` [DOXORUBICIN], the IC50 at 24 h [1] is reported as 12.5 µM, the Activity (UO-31 [2]) is reported as 43.47% and the Activity (UO-31 [3]) is reported as 48.62%. The Activity (UO-31 [4]) was 7.91%, the Activity (UO-31 [5]) was 51.66% and the Activity (UO-31 [6]) was 2.13%. It also gave an Activity (UO-31 [7]) of 1.66%, an Activity (UO-31 [8]) of 14.13% and an Activity (UO-31 [9]) of 26.5%. The Activity (UO-31 [10]) was 11.03%, the OD (UO-31 [11]) was 0.844 and the Activity (UO-31 [12]) was 392.1 pg/mL. For the same compound, the Activity (UO-31 [13]) was 4.396 ng/mL, the “fold change (FC)” value (UO-31 [14]) was 5.59 and the “fold change (FC)” value (UO-31 [15]) was 0.36. For the same compound, the IC50 (UO-31 [16]) was 3.61 µM, the IC50 (M14 [17]) was 5.11 µM and the IC50 (HCT-116) was 0.49 µM. The IC50 (SNB-75 [18]) was 5.82 µM, the IC50 (UO-31 [19]) was 3.01 µM and the IC50 (M14 [20]) was 2.13 µM.

With `O=C(CSc1nc2ccccc2c(=O)n1-c1ccc(S(=O)(=O)Nc2ccc(Cl)nn2)cc1)NCc1ccccc1` the inhibition of growth at 10 µM (MDA-MB-468) was 16%, the inhibition of growth at 10 µM (RXF 393) was 18% and the inhibition of growth at 10 µM (T47D) was 24%. For the same compound, the inhibition of growth at 10 µM (UACC-62) was 18%, the inhibition of growth at 10 µM (SR) was 12% and the inhibition of growth at 10 µM (A549) was 11%. It also gave an inhibition of growth at 10 µM (RPMI-8226) of 21%, an inhibition of growth at 10 µM (MOLT-4) of 12% and an inhibition of growth at 10 µM (MCF7) of 11%. For the same compound, the inhibition of growth at 10 µM (UO-31 [21]) was 12%, the inhibition of growth at 10 µM (CAKI-1) was 14% and the inhibition of growth at 10 µM (A498) was 18%. The inhibition of growth at 10 µM (786-0) was 10%, the inhibition of growth at 10 µM (SNB-75 [22]) was 12% and the inhibition of growth at 10 µM (NCI-H522) was 14%.

In the case of `O=C(CSc1nc2ccccc2c(=O)n1-c1ccc(S(=O)(=O)Nc2ccc(Cl)nn2)cc1)NCCc1ccccc1`, the inhibition of growth at 10 µM (MDA-MB-468) is reported as 10%, the inhibition of growth at 10 µM (MDA-MB-231) is reported as 20% and the inhibition of growth at 10 µM (Hs-578T) is reported as 23%. For the same compound, the inhibition of growth at 10 µM (T47D) was 27%, the inhibition of growth at 10 µM (SK-OV-3) was 20% and the inhibition of growth at 10 µM (IGROV-1) was 15%. For the same compound, the inhibition of growth at 10 µM (UACC-62) was 20%, the inhibition of growth at 10 µM (SF-268) was 13% and the inhibition of growth at 10 µM (KM12) was 14%. The inhibition of growth at 10 µM (HT-29) was 11%, the inhibition of growth at 10 µM (EKVX) was 24% and the inhibition of growth at 10 µM (SR) was 21%. It also gave an inhibition of growth at 10 µM (RPMI-8226) of 11%, an inhibition of growth at 10 µM (MOLT-4) of 20% and an inhibition of growth at 10 µM (K562) of 11%. It also gave an inhibition of growth at 10 µM (CCRF-CEM) of 14%, an inhibition of growth at 10 µM (BT-549) of 10% and an inhibition of growth at 10 µM (MCF7) of 24%. For the same compound, the inhibition of growth at 10 µM (UO-31 [21]) was 29%, the inhibition of growth at 10 µM (A498) was 37% and the inhibition of growth at 10 µM (786-0) was 16%. The inhibition of growth at 10 µM (LOX IMVI) was 14%, the inhibition of growth at 10 µM (NCI-H522) was 22% and the inhibition of growth at 10 µM (HOP-92) was 12%. The IC50 (UO-31 [16]) was 3.14 µM and the IC50 (UO-31 [19]) was 3.49 µM.

`CNC(=O)c1cc(Oc2ccc(NC(=O)Nc3ccc(Cl)c(C(F)(F)F)c3)cc2)ccn1` [SORAFENIB] showed an Activity [23] of 46.7%, an IC50 [24] of 0.04 µM and an Activity (UO-31 [25]) of 1.47%. The Activity (UO-31 [8]) was 19.42%, the Activity (UO-31 [9]) was 31.17% and the Activity (UO-31 [10]) was 4.72%. It also gave an Activity (UO-31 [12]) of 409.2 pg/mL and an Activity (UO-31 [13]) of 3.898 ng/mL.
